Here are results for 81 compounds from the METLIN SMRT retention time set (Domingo-Almenara et al. 2019).

Structures are written as SMILES.

This data set is described as follows: gradient 5% acetonitrile 3 min, to 50% in 2 min, to 85% in 15 min, held 3 min, 100 µL/min. The settings on record: column: Zorbax Extend-C18 2.1 x 50 mm; eluents: water / acetonitrile, 0.1% formic acid. Summed up:
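Pure standards were run in mixtures of ~100 molecules by HPLC coupled to a quadrupole time-of-flight mass spectrometer. The column was a Zorbax Extend-C18 (2.1 × 50 mm, 1.8 μm) at 100 μL/min, with water and acetonitrile each containing 0.1% formic acid, in positive and negative ionization mode. Dead and dwell volumes were 40 μL and 900 μL. Retention time was taken from computationally picked adduct peaks, each manually inspected, with data collected over 3 months.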
The compound `CCCn1cc(S(=O)(=O)NCc2ccccc2C(F)(F)F)c2cccnc21` returned an RP-LC retention time of 988 s. The same measure for `CCn1ncc(C(=O)N2CCCn3ccnc3C2C(C)C)c1C` (stereo unspecified): 567 s; for `CCc1cccc(C)c1NC(=O)Cn1nc2c3ccccc3ncn2c1=O`: 705 s; for `Cc1noc(C)c1CN1CCN(C(=O)c2cc(-c3ccco3)on2)CC1`: 572 s. The same measure for `COc1ccc(-c2nc3ncccn3c2NCc2ccc(C)cc2)cc1OC`: 709 s; for `O=C(CN1C(=O)COc2ccc(C(=O)N3CCCC3)cc21)N1CCc2ccccc2C1`: 721 s. The same measure for `CN1CCC(N2CCN(C(=O)C3CCc4sc(C(=O)N5CCCC5)cc4C3)CC2)CC1` (stereo unspecified): 558 s. `O=C(Cc1ccsc1)N1C[C@H]2C[C@H](C1)[C@H]1CCCC(=O)N1C2` yielded an RP-LC retention time of 631 s. The same measure for `O=C1C[C@@H](c2ccc(O)c(O)c2)Oc2c1ccc(O[C@@H]1O[C@H](CO)[C@@H](O)[C@H](O)[C@H]1O)c2O`: 617 s. The same measure for `CCNC(=O)NCCc1cn(CC(C)C)c2ncccc12`: 631 s; for `Cc1nc(-c2cn(C(C)C)c3ncccc23)sc1C(=O)N1CCCCC1C` (stereo unspecified): 1030 s. The same measure for `CCc1nc(-c2csc(S(=O)(=O)N3CCC(C(=O)Nc4cccc(C)n4)CC3)c2)no1`: 838 s.

The compound `Cc1cccc(C(=O)Nc2ccc3c(c2)Sc2ncccc2C(=O)N3C)c1` showed an RP-LC retention time of 809 s. The same measure for `Cn1cccc1C(=O)C(=O)Nc1ccc2c(c1)OCCO2`: 842 s; for `CC(C)CC(=O)Nc1ccc(N2CCOCC2)cc1C(=O)O`: 713 s; for `CCNC(=O)N1CCCC(Cn2c(C3CC3)nc3cccnc32)C1` (stereo unspecified): 585 s. The same measure for `COc1nccnc1N1CCC(NC(=O)c2ccc3cc[nH]c3c2)C1` (stereo unspecified): 633 s; for `CCN(CC)CCNC(=O)C1CCN(c2nc3ccccc3n3cccc23)CC1`: 579 s; for `O=C1c2ccccc2C(=O)N1c1ccc(OC(F)(F)F)cc1`: 954 s. The same measure for `Cn1nc(C(=O)N2CCCC(C(=O)N3CCCC3)C2)c2c1CCN(C(=O)c1c(F)cccc1F)C2` (stereo unspecified): 686 s; for `NC(=O)c1oc2ccccc2c1NC(=O)C(=O)NCc1ccc2c(c1)OCO2`: 758 s; for `O=C(NCC(c1ccsc1)N1CCCCCC1)C(=O)Nc1ccc2c(c1)OCCO2` (stereo unspecified): 570 s.

The compound `Cc1c(F)cccc1NC(=O)Nc1ccc2nnc(C)n2c1` returned an RP-LC retention time of 718 s. The same measure for `Cc1ccccc1CNC(=O)C1(C)CCN(S(=O)(=O)c2ccc(Br)s2)CC1`: 1050 s; for `CCc1nc(-c2csc(S(=O)(=O)N3CCC(C(=O)Nc4ccc(Cl)cc4F)CC3)c2)no1`: 1060 s; for `CNC(=O)[C@@H]1CN(C(=O)c2ccc3c(c2)OCO3)C[C@H]1c1n[nH]c(C)n1`: 580 s. The same measure for `CCOc1ccc(C(=O)N2CCC3(CC2)NCc2ccccc2-n2ccnc23)cc1`: 619 s; for `CC1=C(c2ccccc2)S(=O)(=O)N=C1N1CCCN(C(=O)c2ccc(Cl)cc2)CC1`: 863 s. The same measure for `O=c1ccc(N2CCCC(NS(=O)(=O)c3ccc(F)c(F)c3)C2)nn1CC1CC1` (stereo unspecified): 851 s.

As to `Cc1ccc(NS(=O)(=O)c2cc3n(c2)CCN(C(C)C)C3=O)cc1`, the RP-LC retention time amounted to 777 s. The same measure for `O=C(Nc1ccc(F)cc1)C1CCCN(c2ccc3cc(S(=O)(=O)N4CCCCC4)ccc3n2)C1` (stereo unspecified): 883 s. The same measure for `CC(=O)N1c2ccc(S(=O)(=O)N3CCCCC3)cc2CC1C(=O)NCCCc1ccccc1` (stereo unspecified): 917 s. The same measure for `COc1ccc(-c2nnc(CC(=O)NCC(C)C)o2)cc1`: 705 s; for `O=c1c2ccccc2c(-c2nc(-c3cccnc3)no2)cn1-c1ccc(F)cc1`: 1050 s; for `Cc1cc2[nH]c(C(=O)Nc3cccc(F)c3C)c(CN3CCOCC3)c2s1`: 731 s.

Compound `CCCNC(=O)N(C)CCc1noc(COc2ccc(Cl)cc2)n1` showed an RP-LC retention time of 833 s.

The compound `CCNc1nc(NCC)n2c(SCC(=O)Nc3ccccc3[N+](=O)[O-])nnc2n1` came in with an RP-LC retention time of 623 s.

Consider `Cc1ccc(CNC(=O)C2(C)CCC(=O)N2CCc2c[nH]c3ccccc23)cc1` (stereo unspecified), for which the RP-LC retention time was 805 s. The same measure for `N#Cc1cccc(CN2CCC3(CCC3O)CC2)c1` (stereo unspecified): 565 s. The same measure for `O=C(NCc1ccncc1)C1CC(=O)N(CCc2c[nH]c3ccc(F)cc23)C1` (stereo unspecified): 588 s. With `COCCNC(=O)C1CCN(S(C)(=O)=O)c2cc(Cl)ccc2O1` (stereo unspecified), the RP-LC retention time was determined as 710 s. The same measure for `Cc1ccc(N2CCN(C(=O)c3cn(-c4ccc(NC(=O)C5CC5)cn4)cn3)CC2)c(C)c1`: 913 s; for `CCOc1ccccc1NC(=O)c1cc2c(=O)n(CC(C)C)c3ccccc3n2n1`: 1350 s.

Compound `O=C(Nc1cccc(Cl)c1)c1c(O)c2cccnc2n(-c2ccccc2)c1=O` yielded an RP-LC retention time of 1340 s. The same measure for `CN(C)CCNC(=O)CS(=O)Cc1cnn(-c2ccccc2)c1-n1cccc1` (stereo unspecified): 603 s; for `O=C(O)CSc1nc2ccccc2s1`: 795 s. The same measure for `O=C(N1CCC[C@H]1c1nc(-c2ccccc2)n[nH]1)C1(c2ccccc2)CC1`: 785 s. The same measure for `COc1ccc(C(=O)NC(CC(C)C)C(=O)Nc2nc3ccccc3[nH]2)cc1` (stereo unspecified): 725 s. For the compound `Cc1noc([C@@H]2CN(C(=O)c3ccc(Br)o3)C[C@H]2CO)n1`, the RP-LC retention time worked out at 657 s. The same measure for `COC(=O)CNC(=O)N1CCCC1c1ccc(OC)cc1` (stereo unspecified): 678 s.

In the case of `CC1CCCN(c2cc(SCC(=O)Nc3ccc(F)cc3)ncn2)C1` (stereo unspecified), the RP-LC retention time turned out to be 955 s. The same measure for `COc1ccc(C2CCN(S(=O)(=O)c3cccc(C(F)(F)F)c3)C2)cc1` (stereo unspecified): 1060 s.

In the case of `CCc1nccn1Cc1nc(-c2cc(OC)c(OC)c(OC)c2)no1`, the RP-LC retention time worked out at 621 s. The same measure for `Cc1ccc2[nH]c(C(N)=O)c(N3CCCC3=O)c2c1`: 646 s; for `COC1=C(OC)C(=O)c2ccccc2C1=O`: 878 s.

As for `CCNC(=O)CCc1nc2ccccc2n(CC(=O)NCCc2ccc(Cl)cc2)c1=O`, the RP-LC retention time was 773 s. The same measure for `CCN1C(=O)C2(CCN(C(=O)c3cn(C)cn3)CC2)c2ccccc21`: 630 s.

Compound `CCS(=O)(=O)N1CC(=O)N(c2cc(C)ccc2C)C(C)(C(=O)NC2CCCCCC2)C1` (stereo unspecified) returned an RP-LC retention time of 951 s. The same measure for `COc1ccc(NC(=O)N2[C@H]3CC[C@@H]2c2cnc(C)nc2C3)cc1OC`: 611 s. For the compound `COC[C@@H]1CN(S(=O)(=O)c2c(C)noc2C)C[C@H]1c1ccncc1`, the RP-LC retention time was found to be 570 s. The same measure for `COc1cccc(C(=O)COc2cc(O)c3c(=O)cc(-c4ccccc4)oc3c2)c1`: 1170 s. The same measure for `COCCNC(=O)c1cc2c(s1)CCN(C(C)=O)C2`: 588 s; for `COCCOC(=O)c1c(C)oc2ccc(OC(=O)C3CC3)cc12`: 941 s; for `CCc1nccn1Cc1noc(-c2ccc(Cl)cc2)n1`: 668 s.

Take `Cc1csc(-c2cc(S(=O)(=O)NC3CCCC3)c(C)n2C)n1`: the RP-LC retention time worked out at 970 s. The same measure for `CN(C)S(=O)(=O)c1ccc(-c2nnc(C(=O)NCc3ccc(F)cc3)o2)cc1`: 844 s; for `CCNc1cc(N2CCCC(CCC(=O)N3CCCN(c4ncccn4)CC3)C2)ncn1` (stereo unspecified): 608 s. The same measure for `O=C(CSc1ccc(N2CCN(c3ccc(F)cc3)CC2)nn1)NCC1CCCO1` (stereo unspecified): 689 s; for `Cc1cc(C)nc(Nc2nc(-c3ccccc3)c(CC(=O)O)s2)n1`: 710 s. The same measure for `CC(C)c1noc(-c2cc(=O)n(CC(=O)Nc3ccc4c(c3)OCCO4)c3ccccc23)n1`: 941 s.

The compound `O=C(CSc1nncc2ccccc12)NCCc1ccccc1` came in with an RP-LC retention time of 687 s. The same measure for `CC(NC(=O)c1ccc(-c2ccnc(N3CCCCC3)n2)cc1)c1cccnc1` (stereo unspecified): 651 s; for `CC1=C(c2ccc(Cl)cc2)S(=O)(=O)N=C1N1CCCN(C(=O)Cn2ccnc2)CC1`: 633 s. `Cc1cccc(CNC(=O)CCc2c(-c3ccc(Br)cc3)nc3ccccn23)c1` had an RP-LC retention time of 718 s. The same measure for `Cc1cc(C)cc(N2CCCn3c2nc2c3c(=O)n(C)c(=O)n2C)c1`: 841 s; for `O=[N+]([O-])c1cc(F)c2cccnc2c1O`: 773 s.

With `O=C(NCC1CC1)C1CC(=O)N(c2ccc3c(c2)CCN3C(=O)C2CCC2)C1` (stereo unspecified), the RP-LC retention time amounted to 719 s. The same measure for `Cn1c(=O)c2cc(C(=O)Nc3ccc(F)c(Cl)c3)sc2n(C)c1=O`: 847 s; for `COc1ccc(C(=O)Nc2cnc(N3CCOCC3)nc2)cc1`: 618 s. The same measure for `CC1(C)CC(O)CC(C)(C)N1[O-]`: 578 s; for `O=C(c1cc2ccccc2[nH]1)N1CC2CN(S(=O)(=O)c3cccc(F)c3)CC(C1)O2`: 862 s.
